Data on 12 molecules can be found in patent publication US10301295B2, “Herbicidal compounds” (Syngenta Participations AG, priority 2014, dated 2019).

Where two headings read alike, the source gives them in different places.

What all share (format): in vivo
The test system of assay [1] is Alopecurus myosuroides (ALOMY). In words: Glasshouse assay for herbicidal activity, pre-/post-emergence (percentage phytotoxicity). To be noted: Alopecurus myosuroides, Rate 250 g/ha, 100%=total damage, 0%=no damage. In a few lines: (§1)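 Seeds sown in standard soil in pots, grown 1 day (pre-emergence) or ~12 days (post-emergence) before treatment. Glasshouse: warm species 24/18 °C, cool species 20/16 °C day/night, 16 h light, 65% humidity, watered twice daily. Visual phytotoxicity scored 15DAA (post) or 20DAA (pre); 0% none, 100% total damage.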

The subject of another assay is Avena fatua (AVEFA). The assay is described as above. To be noted: Avena fatua, Rate 250 g/ha, 100%=total damage, 0%=no damage. An outline of the steps:
as §1

Assay [2] relates to Echinochloa crus-galli (ECHCG). The description is as above. To be noted: Echinochloa crus-galli, Rate 250 g/ha, 100%=total damage, 0%=no damage. In a few lines:
as §1

In the next assay the test system is Lolium perenne (LOLPE). The assay is described as above. The note with it: Lolium perenne, Rate 250 g/ha, 100%=total damage, 0%=no damage. In a few lines:
as §1

The test system of another assay is wheat. In words: Post-emergence herbicidal activity against cereal crops (wheat) +/- safener, crop selectivity. To be noted: 100%=total damage to plant, 0%=no damage; for Post-emergence herbicidal activity against wheat (percentage phytotoxicity), +CQC: 250 g/ha, plus safener cloquintocet-mexyl (CQC) applied at 50 g/ha; for percent phytotoxicity (crop damage) to wheat at 250 g/ha: Triticum aestivum, 360 h, without safener, read-out: Post-emergence herbicidal activity against wheat (percentage phytotoxicity), Wheat - CQC. In a few lines: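 Test plants raised in pots in a glasshouse (24/18 °C warm or 20/16 °C cool species day/night, 16 h light, 65% humidity) and treated post-emergence about 12 days after sowing. Visual percentage phytotoxicity scored 15 days after application (0% = no damage, 100% = total damage).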

[3] abbreviates: 360 h, post-emergence, visual assessment 15 DAA, read-out: Post-emergence herbicidal activity (percentage phytotoxicity), ALOMY POST.
The mark [4] stands for this setting: 480 h, pre-emergence, visual assessment 20 DAA, read-out: Pre-emergence herbicidal activity (percentage phytotoxicity), ALOMY PRE.
Setting [5] is: post-emergence, 360 h, post-emergence, visual assessment 15 DAA, read-out: Post-emergence herbicidal activity (percentage phytotoxicity), AVEFA POST.
Setting [6] is: pre-emergence, 480 h, pre-emergence, visual assessment 20 DAA, read-out: Pre-emergence herbicidal activity (percentage phytotoxicity), AVEFA PRE.
Setting [7] is: post-emergence, 360 h, post-emergence, visual assessment 15 DAA, read-out: Post-emergence herbicidal activity (percentage phytotoxicity), ECHCG POST.
Where [8] appears, read: pre-emergence, 480 h, pre-emergence, visual assessment 20 DAA, read-out: Pre-emergence herbicidal activity (percentage phytotoxicity), ECHCG PRE.
[9] abbreviates: post-emergence, 360 h, post-emergence, visual assessment 15 DAA, read-out: Post-emergence herbicidal activity (percentage phytotoxicity), LOLPE POST.
The mark [10] stands for this setting: pre-emergence, 480 h, pre-emergence, visual assessment 20 DAA, read-out: Pre-emergence herbicidal activity (percentage phytotoxicity), LOLPE PRE.

`Cc1cc(C)c(C2C(=O)CC(CCNC(=O)NC(=O)c3ccc(C(F)(F)F)cc3F)C2=O)c(C)c1` (stereo not drawn) [Compound A70]: the pest or weed control at 250 g/ha in assay [1] (setting [3]) was 20%; in assay [1] (setting [4]), 50%; with Avena fatua (AVEFA) (setting [5]) it was 90%; with Avena fatua (AVEFA) (setting [6]), 40%; in assay [2] (setting [7]), 90%; in assay [2] (setting [8]), 100%. In addition, the figures for the pest or weed control at 250 g/ha in the assay with Lolium perenne (LOLPE) (setting [9]) and in the assay with Lolium perenne (LOLPE) (setting [10]) were 100% and 60%, respectively. Also, in the assay with wheat, the “Post-emergence herbicidal activity against wheat (percentage phytotoxicity), +CQC” value is 80%. Also, the percent phytotoxicity (crop damage) to wheat at 250 g/ha with wheat was found to be 80%.

Turning to `Cc1cc(C)c(C2C(=O)CC(CCNC(=O)NC(=O)c3ccccc3C)C2=O)c(C)c1` (stereo not drawn) [Compound A50], the pest or weed control at 250 g/ha amounted to 100% in assay [1] (setting [3]); 100% in assay [1] (setting [4]); 90% with Avena fatua (AVEFA) (setting [5]); 80% in the assay with Avena fatua (AVEFA) (setting [6]); 80% in assay [2] (setting [7]); 90% in assay [2] (setting [8]). Moreover, the pest or weed control at 250 g/ha stood at 100% with Lolium perenne (LOLPE) (setting [9]) and 90% in the assay on Lolium perenne (LOLPE) (setting [10]). For the same molecule, in the assay with wheat, the “Post-emergence herbicidal activity against wheat (percentage phytotoxicity), +CQC” value amounted to 90%. Besides, the percent phytotoxicity (crop damage) to wheat at 250 g/ha in the assay on wheat is 90%.

Take `Cc1cc(-n2cc(Cl)cn2)cc(C)c1C1C(=O)CC(CCNC(=O)Nc2ccncn2)C1=O.Cl` (stereo not drawn) [Compound A33]: the pest or weed control at 250 g/ha in assay [1] (setting [3]) was 40%; in assay [1] (setting [4]), 60%; in the assay with Avena fatua (AVEFA) (setting [5]) it was 40%; in the assay with Avena fatua (AVEFA) (setting [6]), 40%; in assay [2] (setting [7]) it was 80%; in assay [2] (setting [8]), 70%. Besides, the pest or weed control at 250 g/ha in the assay on Lolium perenne (LOLPE) (setting [9]) was determined as 30%; in the assay with Lolium perenne (LOLPE) (setting [10]) it was 0%. The “Post-emergence herbicidal activity against wheat (percentage phytotoxicity), +CQC” value with wheat worked out at 10%. For the same molecule, the percent phytotoxicity (crop damage) to wheat at 250 g/ha with wheat is 40%.

For `CON=C(C)C(=O)NCCC1CC(=O)C(c2c(C)cc(-n3cc(Cl)cn3)cc2C)C1=O` (stereo not drawn) [Compound A38], the pest or weed control at 250 g/ha in assay [1] (setting [3]) came to 70%; in assay [1] (setting [4]) it was 70%; with Avena fatua (AVEFA) (setting [5]), 80%; in the assay with Avena fatua (AVEFA) (setting [6]), 70%; in assay [2] (setting [7]), 100%; in assay [2] (setting [8]), 100%. Moreover, the pest or weed control at 250 g/ha was 80% in the assay on Lolium perenne (LOLPE) (setting [9]) and 70% in the assay with Lolium perenne (LOLPE) (setting [10]). Moreover, in the assay with wheat, the “Post-emergence herbicidal activity against wheat (percentage phytotoxicity), +CQC” value was found to be 30%. Also, the percent phytotoxicity (crop damage) to wheat at 250 g/ha in the assay on wheat is 70%.

Turning to `CONC(=O)NCCC1CC(=O)C(c2c(C)cc(C)cc2C)C1=O` (stereo not drawn) [Compound A18], the pest or weed control at 250 g/ha in assay [1] (setting [3]) was found to be 80%; in assay [1] (setting [4]) it was 60%; with Avena fatua (AVEFA) (setting [5]), 80%; in the assay with Avena fatua (AVEFA) (setting [6]), 50%; in assay [2] (setting [7]) it was 90%; in assay [2] (setting [8]), 60%. The pest or weed control at 250 g/ha was found to be 80% in the assay with Lolium perenne (LOLPE) (setting [9]) and 70% with Lolium perenne (LOLPE) (setting [10]). Further, in the assay on wheat, the “Post-emergence herbicidal activity against wheat (percentage phytotoxicity), +CQC” value was determined as 0%. For the same molecule, the percent phytotoxicity (crop damage) to wheat at 250 g/ha in the assay on wheat came out at 60%.

For the molecule `Cc1cc(-c2ncc(Cl)cc2F)cc(C)c1C1C(=O)CC(CCNC(=O)N(C)c2ccccn2)C1=O.Cl` (stereo not drawn) [Compound A27], the pest or weed control at 250 g/ha in assay [1] (setting [3]) amounted to 90%; in assay [1] (setting [4]), 60%; in the assay with Avena fatua (AVEFA) (setting [5]), 90%; in the assay on Avena fatua (AVEFA) (setting [6]), 90%; in assay [2] (setting [7]), 100%; in assay [2] (setting [8]), 90%. In addition, the results for the pest or weed control at 250 g/ha in the assay on Lolium perenne (LOLPE) (setting [9]) and in the assay with Lolium perenne (LOLPE) (setting [10]) were 100% and 90%, respectively. Further, in the assay on wheat, the “Post-emergence herbicidal activity against wheat (percentage phytotoxicity), +CQC” value is on record as 70%. The percent phytotoxicity (crop damage) to wheat at 250 g/ha with wheat was 80%.

`CON=C(C)C(=O)NCCC1CC(=O)C(c2c(C)cc(C)cc2C)C1=O` (stereo not drawn) [Compound A39]: the pest or weed control at 250 g/ha was determined as 80% in assay [1] (setting [3]); 80% in assay [1] (setting [4]); 80% in the assay on Avena fatua (AVEFA) (setting [5]); 50% with Avena fatua (AVEFA) (setting [6]); 50% in assay [2] (setting [7]); 30% in assay [2] (setting [8]). Moreover, the pest or weed control at 250 g/ha in the assay with Lolium perenne (LOLPE) (setting [9]) stood at 100%; with Lolium perenne (LOLPE) (setting [10]), 90%. In addition, the “Post-emergence herbicidal activity against wheat (percentage phytotoxicity), +CQC” value with wheat is given as 10%. The percent phytotoxicity (crop damage) to wheat at 250 g/ha with wheat is 60%.

Take `Cc1cc(C)c(C2C(=O)CC(CCNC(=O)NC(=O)c3cc(F)ccc3C(F)(F)F)C2=O)c(C)c1` (stereo not drawn) [Compound A63]: the pest or weed control at 250 g/ha in assay [1] (setting [3]) was found to be 100%; in assay [1] (setting [4]), 90%; in the assay on Avena fatua (AVEFA) (setting [5]), 90%; in the assay with Avena fatua (AVEFA) (setting [6]) it was 40%; in assay [2] (setting [7]), 80%; in assay [2] (setting [8]), 70%. The pest or weed control at 250 g/ha was 90% in the assay with Lolium perenne (LOLPE) (setting [9]) and 80% in the assay on Lolium perenne (LOLPE) (setting [10]). In addition, the “Post-emergence herbicidal activity against wheat (percentage phytotoxicity), +CQC” value in the assay on wheat was 80%. Also, the percent phytotoxicity (crop damage) to wheat at 250 g/ha in the assay with wheat came to 80%.

With `Cc1cc(C)c(C2C(=O)CC(CCNS(=O)(=O)c3ccc(OC(F)(F)F)cc3)C2=O)c(C)c1` (stereo not drawn) [Compound A85], the pest or weed control at 250 g/ha in assay [1] (setting [3]) was 60%; in assay [1] (setting [4]) it was 70%; in the assay on Avena fatua (AVEFA) (setting [5]), 80%; in the assay with Avena fatua (AVEFA) (setting [6]) it was 80%; in assay [2] (setting [7]), 40%; in assay [2] (setting [8]), 70%. Further, the pest or weed control at 250 g/ha worked out at 50% in the assay with Lolium perenne (LOLPE) (setting [9]) and 80% with Lolium perenne (LOLPE) (setting [10]). For the same molecule, the “Post-emergence herbicidal activity against wheat (percentage phytotoxicity), +CQC” value in the assay with wheat was determined as 10%. In addition, the percent phytotoxicity (crop damage) to wheat at 250 g/ha in the assay with wheat is 20%.

In the case of `Cc1cc(C)c(C2C(=O)CC(CCNS(=O)(=O)c3ccc(F)cc3)C2=O)c(C)c1` (stereo not drawn) [Compound A73], the pest or weed control at 250 g/ha turned out to be 40% in assay [1] (setting [3]); 70% in assay [1] (setting [4]); 60% with Avena fatua (AVEFA) (setting [5]); 0% with Avena fatua (AVEFA) (setting [6]); 30% in assay [2] (setting [7]); 30% in assay [2] (setting [8]). Further, the values for the pest or weed control at 250 g/ha with Lolium perenne (LOLPE) (setting [9]) and in the assay with Lolium perenne (LOLPE) (setting [10]) were 60% and 70%, respectively. In the assay on wheat, the “Post-emergence herbicidal activity against wheat (percentage phytotoxicity), +CQC” value came out at 10%. The percent phytotoxicity (crop damage) to wheat at 250 g/ha in the assay on wheat was determined as 0%.

As to `Cc1cc(C)c(C2C(=O)CC(CCNC(=O)NC(=O)c3c(F)cccc3F)C2=O)c(C)c1` (stereo not drawn) [Compound A48], the pest or weed control at 250 g/ha in assay [1] (setting [3]) was determined as 90%; in assay [1] (setting [4]), 100%; with Avena fatua (AVEFA) (setting [5]), 100%; with Avena fatua (AVEFA) (setting [6]) it was 90%; in assay [2] (setting [7]) it was 100%; in assay [2] (setting [8]), 90%. Besides, the pest or weed control at 250 g/ha in the assay on Lolium perenne (LOLPE) (setting [9]) and with Lolium perenne (LOLPE) (setting [10]) was 100% each time. Moreover, the “Post-emergence herbicidal activity against wheat (percentage phytotoxicity), +CQC” value in the assay on wheat is 50%. Also, in the assay on wheat, the percent phytotoxicity (crop damage) to wheat at 250 g/ha was 60%.

Turning to `Cc1cc(C)c(C2C(=O)CC(CCNS(=O)(=O)c3ccc(Cl)cc3)C2=O)c(C)c1` (stereo not drawn) [Compound A81], the pest or weed control at 250 g/ha in assay [1] (setting [3]) was determined as 60%; in assay [1] (setting [4]), 60%; with Avena fatua (AVEFA) (setting [5]) it was 70%; with Avena fatua (AVEFA) (setting [6]) it was 70%; in assay [2] (setting [7]), 60%; in assay [2] (setting [8]), 70%. In addition, the pest or weed control at 250 g/ha in the assay on Lolium perenne (LOLPE) (setting [9]) was 60%; with Lolium perenne (LOLPE) (setting [10]), 70%. In addition, the “Post-emergence herbicidal activity against wheat (percentage phytotoxicity), +CQC” value in the assay on wheat came out at 0%. Further, the percent phytotoxicity (crop damage) to wheat at 250 g/ha in the assay with wheat was found to be 0%.
